Measured values reported in patent publication US20150141381A1, “TETRACYCLINE COMPOUNDS HAVING TARGET THERAPEUTIC ACTIVITIES” (Paratek Pharmaceuticals, Inc., priority 2001, published 2015).
Read-outs that look alike come from different tables or passages of the source.

Key:
S. aureus RN450 = assay: In Vitro Anti-Bacterial Activity Assay (MIC), gram positive; format: cell-based; details: Staphylococcus aureus, RN450, 18 h
E. coli mL308 225 = assay: In Vitro Anti-Bacterial Activity Assay (MIC), gram negative; format: cell-based; details: Escherichia coli, ML308225, 18 h
[1] = gram positive bacteria, read-out: Antibiotic Activity Gram + (MIC)
[2] = gram negative bacteria, read-out: Antibiotic Activity Gram − (MIC)
[3] = MIC class, Table 3, read-out: Antibiotic Activity Gram +
[4] = MIC class, Table 3, read-out: Antibiotic Activity Gram −
[5] = read-out: Antibiotic Activity Gram +
[6] = read-out: Antibiotic Activity Gram −
[7] = MIC class, Table 3 (Continued), read-out: Gram+ activity
[8] = MIC class, Table 3 (Continued), read-out: Gram− activity

CN(C)c1cc(CNCCCC(F)(F)F)c(O)c2c1C[C@H]1C[C@H]3[C@H](N(C)C)C(O)=C(C(N)=O)C(=O)[C@@]3(O)C(O)=C1C2=O showed an MIC (S. aureus RN450; [1]) of under 4 µg/mL and an MIC (E. coli mL308 225; [2]) of under 4 µg/mL.
With CC1CN(Cc2cc(N(C)C)c3c(c2O)C(=O)C2=C(O)[C@]4(O)C(=O)C(C(N)=O)=C(O)[C@@H](N(C)C)[C@@H]4C[C@@H]2C3)CC(C)O1 (stereo partly shown) the MIC (S. aureus RN450; [1]) was under 4 µg/mL and the MIC (E. coli mL308 225; [2]) was under 4 µg/mL.
Cc1noc(C)c1S(=O)(=O)Nc1ccc2c(c1O)C(=O)C1=C(O)[C@]3(O)C(=O)C(C(N)=O)=C(O)[C@@H](N(C)C)[C@@H]3C[C@@H]1C2 [IP] was tested, and the MIC (S. aureus RN450; [3]) was under 4 µg/mL and the MIC (E. coli mL308 225; [4]) was over 4 µg/mL.
CCOC(=O)COC1=C(C(N)=O)C(=O)[C@@]2(O)C(O)=C3C(=O)c4c(O)ccc(I)c4C[C@H]3C[C@H]2[C@@H]1N(C)C [OY] gave an MIC (S. aureus RN450; [3]) of under 4 µg/mL and an MIC (E. coli mL308 225; [4]) of over 4 µg/mL.
Molecule CCN(CC)Cc1ccc(OC)c(-c2ccc(O)c3c2C[C@H]2C[C@H]4C(N(C)C)C(O)=C(C(N)=O)C(=O)[C@@]4(O)C(O)=C2C3=O)c1 (stereo partly shown) [EC] has an MIC (S. aureus RN450; [3]) of under 4 µg/mL and an MIC (E. coli mL308 225; [4]) of under 4 µg/mL.
For CN(C)[C@@H]1C(O)=C(C(N)=O)C(=O)[C@@]2(O)C(O)=C3C(=O)c4c(O)ccc(-c5ccc(CNCCc6ccc(Cl)cc6)cc5)c4C[C@H]3C[C@@H]12, the MIC (S. aureus RN450; [1]) was under 4 µg/mL and the MIC (E. coli mL308 225; [2]) was under 4 µg/mL.
Work on Cc1ccc(OC(=O)NCc2cc(N(C)C)c3c(c2O)C(=O)C2=C(O)[C@]4(O)C(=O)C(C(N)=O)=C(O)[C@@H](N(C)C)[C@@H]4C[C@@H]2C3)cc1 [FG] yielded an MIC (S. aureus RN450; [5]) of under 4 µg/mL and an MIC (E. coli mL308 225; [6]) of over 4 µg/mL.
Molecule CN(C)c1cc(CN2CCC(=O)CC2)c(O)c2c1C[C@H]1C[C@H]3[C@H](N(C)C)C(O)=C(C(N)=O)C(=O)[C@@]3(O)C(O)=C1C2=O has an MIC (S. aureus RN450; [1]) of under 4 µg/mL and an MIC (E. coli mL308 225; [2]) of over 4 µg/mL.
In the case of CN(C)[C@@H]1C(O)=C(C(N)=O)C(=O)[C@@]2(O)C(O)=C3C(=O)c4c(O)ccc(/C=C/c5c(F)c(F)c(F)c(F)c5F)c4C[C@H]3C[C@@H]12, the MIC (S. aureus RN450; [7]) is reported as under 4 µg/mL and the MIC (E. coli mL308 225; [8]) is reported as over 4 µg/mL.
CN(C)[C@@H]1C(O)=C(C(N)=O)C(=O)[C@@]2(O)C(O)=C3C(=O)c4c(O)ccc(-c5ccc(CN6CCCC6)o5)c4C[C@H]3C[C@@H]12 [GY] was tested, and the MIC (S. aureus RN450; [3]) was under 4 µg/mL and the MIC (E. coli mL308 225; [4]) was under 4 µg/mL.
Work on CN1CCC(Nc2ccc3c(c2O)C(=O)C2=C(O)[C@]4(O)C(=O)C(C(N)=O)=C(O)[C@@H](N(C)C)[C@@H]4C[C@@H]2C3)CC1 yielded an MIC (S. aureus RN450; [1]) of under 4 µg/mL and an MIC (E. coli mL308 225; [2]) of over 4 µg/mL.
For CCCCCc1ccc(O)c2c1C[C@H]1C[C@H]3[C@H](N(C)C)C(O)=C(C(N)=O)C(=O)[C@@]3(O)C(O)=C1C2=O [DG], the MIC (S. aureus RN450; [3]) was under 4 µg/mL and the MIC (E. coli mL308 225; [4]) was over 4 µg/mL.
Work on CN(C)c1ccc(NC(=O)NCc2cc(N(C)C)c3c(c2O)C(=O)C2=C(O)[C@]4(O)C(=O)C(C(N)=O)=C(O)[C@@H](N(C)C)[C@@H]4C[C@@H]2C3)cc1 [FN] yielded an MIC (S. aureus RN450; [3]) of under 4 µg/mL and an MIC (E. coli mL308 225; [4]) of over 4 µg/mL.
Work on CN(C)c1cc(NCc2ccc(O)c(O)c2)c(O)c2c1C[C@H]1C[C@H]3[C@H](N(C)C)C(O)=C(C(N)=O)C(=O)[C@@]3(O)C(O)=C1C2=O yielded an MIC (S. aureus RN450; [1]) of under 4 µg/mL and an MIC (E. coli mL308 225; [2]) of over 4 µg/mL.
CN(C)[C@@H]1C(OCc2ccccc2)=C(C(N)=O)C(=O)[C@@]2(O)C(O)=C3C(=O)c4c(O)ccc(I)c4C[C@H]3C[C@@H]12 gave an MIC (S. aureus RN450; [1]) of under 4 µg/mL and an MIC (E. coli mL308 225; [2]) of under 4 µg/mL.
With CN(C)c1cc2c(c3c1C[C@H]1C[C@H]4[C@H](N(C)C)C(O)=C(C(N)=O)C(=O)[C@@]4(O)C(O)=C1C3=O)OC(=O)N(CC(C)(C)C)C2 the MIC (S. aureus RN450; [1]) was over 4 µg/mL and the MIC (E. coli mL308 225; [2]) was over 4 µg/mL.
For CN(C)c1cc(C#Cc2ccc(F)cc2)c(O)c2c1C[C@H]1C[C@H]3[C@H](N(C)C)C(O)=C(C(N)=O)C(=O)[C@@]3(O)C(O)=C1C2=O, the MIC (S. aureus RN450; [7]) was under 4 µg/mL and the MIC (E. coli mL308 225; [8]) was under 4 µg/mL.
Molecule COC(=O)O[C@@]12C(=O)C(C(N)=O)=C(O)[C@@H](N(C)C)[C@@H]1C[C@@H]1Cc3cccc(O)c3C(=O)C1=C2O has an MIC (S. aureus RN450; [1]) of over 4 µg/mL and an MIC (E. coli mL308 225; [2]) of over 4 µg/mL.
CN(C)c1cc(NC(=O)Oc2ccc(Cl)cc2)c(O)c2c1C[C@H]1C[C@H]3[C@H](N(C)C)C(O)=C(C(N)=O)C(=O)[C@@]3(O)C(O)=C1C2=O [DP] showed an MIC (S. aureus RN450; [5]) of over 4 µg/mL and an MIC (E. coli mL308 225; [6]) of over 4 µg/mL.
With CN(C)[C@@H]1C(O)=C(C(N)=O)C(=O)[C@@]2(O)C(O)=C3C(=O)c4c(O)ccc(S(=O)(=O)O)c4C[C@H]3C[C@@H]12 the MIC (S. aureus RN450; [1]) was over 4 µg/mL and the MIC (E. coli mL308 225; [2]) was over 4 µg/mL.
Cc1ccc(-c2ccc(O)c3c2C[C@H]2C[C@H]4[C@H](N(C)C)C(O)=C(C(N)=O)C(=O)[C@@]4(O)C(O)=C2C3=O)s1 was tested, and the MIC (S. aureus RN450; [7]) was under 4 µg/mL and the MIC (E. coli mL308 225; [8]) was under 4 µg/mL.
CC1c2cccc(O)c2C(=O)C(C(=O)O)C1[C@H](O)[C@@H]1CC(=O)C(C(N)=O)=C(O)[C@H]1N(C)C (stereo partly shown) showed an MIC (S. aureus RN450; [7]) of over 4 µg/mL and an MIC (E. coli mL308 225; [8]) of over 4 µg/mL.
With CN(C)C1C(O)=C(C(N)=O)C(=O)[C@@]2(O)C(O)=C3C(=O)c4c(O)c(CNCC(C)(C)C)cc(CNCC(C)(C)C)c4C[C@H]3C[C@@H]12 (stereo partly shown) [MU] the MIC (S. aureus RN450; [3]) was under 4 µg/mL and the MIC (E. coli mL308 225; [4]) was under 4 µg/mL.
